pIC50: −log10 of the molar value.
Test system: 855422-203-R-J1-PDC spheroids with HUVEC/MSC, viability
Experiment: Anticancer human tumor 855422-203-R-J1-PDC patient-derived bladder carcinoma cell line growth inhibition [PI3K]
Details: for pIC50: curve of first compound; for viability, T/C: stronger effect = lower value
Source text: Combinatorial screen of targeted agents with the PI3K inhibitors inavolisib, alpelisib, duvelisib, and copanlisib in multi-cell type tumor spheroids
A high-throughput screen of multi-cell type tumor spheroids was designed to identify active combinations of targeted small molecules and PI3K pathway inhibitors. Complex spheroids include a stromal component modeled by human endothelial cells (HUVEC) and fibroblasts modeled by human mesenchymal stem cells (MSCs). The concentration ranges selected for each drug and investigational agent were based upon clinically achievable concentrations if the clinical Cmax of the agent was known.
Compounds. The drugs and investigational agents: inavolisib (NSC800729), alpelisib (NSC765974), duvelisib (NSC772469), copanlisib (NSC816437), ipatasertib (NSC767898), afuresertib (NSC778305), talazoparib (NSC767125), sapanisertib (NSC764658), selumetinib (NSC741078), tovorafenib (DAY101, NSC766906), vemurafenib (NSC761431), ravoxertinib (NSC781343), sotorasib (NSC818433), MRTX1133 (NSC 836407), abemaciclib (NSC 768073), palbociclib (NSC758247), venetoclax (NSC 766270), SY5609 (NSC837396), enzalutamide (NSC755605), and darolutamide (NSC825331), were obtained from the National Cancer Institute (NCI) Developmental Therapeutics Program Chemical Repository. The FDA-approved anticancer drug set is available from the NCI Developmental Therapeutics Program. […] The stock solutions were prepared in dimethyl sulfoxide (DMSO, Sigma-Aldrich, St. Louis, MO, cat. D2650) at 800-fold the tested concentration and stored at -70 degrees C prior to their use. All drugs and investigational agents were tested over a range starting from a high concentration at or near the clinical Cmax and decreasing in half-log increments. If the clinical Cmax for an agent had not been determined, the highest concentration tested was 10 microM.
Cell Culture. All cells were maintained in an incubator at 37 degrees C and 5% CO2 with 95% humidity. The PDC lines were cultured according to standard operating procedures established by the NCI PDMR (https://pdmr.cancer.gov/sops/default.htm). All PDCs were thawed and cultured in Matrigel-coated flasks prepared with a working solution of 1X Ham's F-12 nutrient mix, without supplementation (Invitrogen, Waltham, MA, cat. 11765054), 100 U/mL penicillin-streptomycin (Invitrogen, cat. 15140122), and 2.5% Matrigel (Corning Inc., Corning, NY, cat. 354248) for the first three passages. The 354836-022-R-J1-PDC, 475296-252-R-J1-PDC, and 997726-040-R-J2-PDC lines were cultured in 6A media, which includes advanced DMEM/F-12 (Thermo Fisher Scientific, cat. 12634028), 10 mM HEPES (Thermo Fisher Scientific, cat. 15630080), 1X GlutaMAX supplement (Thermo Fisher Scientific, cat. 35050061), 0.1 mg/mL primocin (InvivoGen, San Diego, CA, cat. ant-pm-2), 10% defined fetal bovine serum, heat inactivated (HyClone Laboratories Inc., Logan, UT, cat. SH30070.03HI), 50% L-WRN conditioned media (ATCC, cat. CRL-3276), 1.25 mM N-Acetyl-L-cysteine (Sigma-Aldrich, cat. A9165), 10 mM nicotinamide (Sigma-Aldrich, cat. N0636), 1X B-27 supplement (Thermo Fisher Scientific, cat. 17504044), 1X N-2 supplement (Thermo Fisher Scientific, cat. 17502048), and 10 microM Y-27632 dihydrochloride (Tocris Bioscience, Bristol, United Kingdom, cat. 1254). The 624824-186-R-J2-PDC line was cultured in 6C/Colon 1B media, which includes all 6A media components plus 50 ng/mL human EGF recombinant protein (Thermo Fisher Scientific, cat. PHG0311). […]

[1] = second compound 0.00316 µM, first compound 0.0316 µM
[2] = second compound 0.00316 µM, first compound 0.1 µM
[3] = second compound 0.01 µM, first compound 0.0316 µM
[4] = second compound 0.01 µM, first compound 0.1 µM
[5] = second compound 0.0316 µM, first compound 0.0316 µM
[6] = second compound 0.0316 µM, first compound 0.1 µM
[7] = second compound 0.1 µM, first compound 0.0316 µM
[8] = second compound 0.1 µM, first compound 0.1 µM
[9] = second compound 0.316 µM, first compound 0.0316 µM
[10] = second compound 0.316 µM, first compound 0.1 µM
[11] = second compound 1 µM, first compound 0.0316 µM
[12] = second compound 1 µM, first compound 0.1 µM
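Also: agents incubated with spheroids for one week before read-out.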
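For viability, T/C in this document: 100% = DMSO vehicle-treated control wells.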

CC(C)n1nc(-c2ccc3oc(N)nc3c2)c2c(N)ncnc21 + CC(Nc1ccc2c(c1)OCCn1cc(N3C(=O)OCC3C(F)F)nc1-2)C(N)=O
pIC50 (second compound 0.00316 µM): 7.29 | pIC50 (second compound 0.01 µM): 7.36 | pIC50 (second compound 0.0316 µM): 7.42 | pIC50 (second compound 0.1 µM): 7.57 | pIC50 (second compound 0.316 µM): 8.22 | pIC50 (second compound 1 µM): > 9.50 | viability, T/C (second compound 0.00316 µM, first compound 0.000316 µM): 113% | viability, T/C (second compound 0.00316 µM, first compound 0.001 µM): 90.1% | viability, T/C (second compound 0.00316 µM, first compound 0.00316 µM): 108% | viability, T/C (second compound 0.00316 µM, first compound 0.01 µM): 92.3% | viability, T/C [1]: 74.2% | viability, T/C [2]: 18.3% | viability, T/C (second compound 0.01 µM, first compound 0.000316 µM): 87.7% | viability, T/C (second compound 0.01 µM, first compound 0.001 µM): 92.9% | viability, T/C (second compound 0.01 µM, first compound 0.00316 µM): 98.7% | viability, T/C (second compound 0.01 µM, first compound 0.01 µM): 81.4% | viability, T/C [3]: 63.1% | viability, T/C [4]: 19% | viability, T/C (second compound 0.0316 µM, first compound 0.000316 µM): 91% | viability, T/C (second compound 0.0316 µM, first compound 0.001 µM): 84.4% | viability, T/C (second compound 0.0316 µM, first compound 0.00316 µM): 82% | viability, T/C (second compound 0.0316 µM, first compound 0.01 µM): 72% | viability, T/C [5]: 59.6% | viability, T/C [6]: 14.4% | viability, T/C (second compound 0.1 µM, first compound 0.000316 µM): 71.8% | viability, T/C (second compound 0.1 µM, first compound 0.001 µM): 72.7% | viability, T/C (second compound 0.1 µM, first compound 0.00316 µM): 78.7% | viability, T/C (second compound 0.1 µM, first compound 0.01 µM): 69.9% | viability, T/C [7]: 46.6% | viability, T/C [8]: 11.4% | viability, T/C (second compound 0.316 µM, first compound 0.000316 µM): 59.3% | viability, T/C (second compound 0.316 µM, first compound 0.001 µM): 55.9% | viability, T/C (second compound 0.316 µM, first compound 0.00316 µM): 58.7% | viability, T/C (second compound 0.316 µM, first compound 0.01 µM): 43.3% | viability, T/C [9]: 32.7% | viability, T/C [10]: 7.57% | viability, T/C (second compound 1 µM, first compound 0.000316 µM): 39.8% | viability, T/C (second compound 1 µM, first compound 0.001 µM): 38.4% | viability, T/C (second compound 1 µM, first compound 0.00316 µM): 36% | viability, T/C (second compound 1 µM, first compound 0.01 µM): 34% | viability, T/C [11]: 24.1% | viability, T/C [12]: 6.71%

CC1(C)CCC(CN2CCN(c3ccc(C(=O)NS(=O)(=O)c4ccc(NCC5CCOCC5)c([N+](=O)[O-])c4)c(Oc4cnc5[nH]ccc5c4)c3)CC2)=C(c2ccc(Cl)cc2)C1 + CC(Nc1ccc2c(c1)OCCn1cc(N3C(=O)OCC3C(F)F)nc1-2)C(N)=O
pIC50 (second compound 0.00316 µM): 5.34 | pIC50 (second compound 0.01 µM): 5.35 | pIC50 (second compound 0.0316 µM): 5.32 | pIC50 (second compound 0.1 µM): 5.33 | pIC50 (second compound 0.316 µM): 5.71 | pIC50 (second compound 1 µM): > 7.50 | viability, T/C [1]: 96.5% | viability, T/C [2]: 88.1% | viability, T/C (second compound 0.00316 µM, first compound 0.316 µM): 116% | viability, T/C (second compound 0.00316 µM, first compound 1 µM): 89.8% | viability, T/C (second compound 0.00316 µM, first compound 3.16 µM): 74% | viability, T/C (second compound 0.00316 µM, first compound 10 µM): 1.86% | viability, T/C [3]: 85.4% | viability, T/C [4]: 77.2% | viability, T/C (second compound 0.01 µM, first compound 0.316 µM): 95.1% | viability, T/C (second compound 0.01 µM, first compound 1 µM): 96.9% | viability, T/C (second compound 0.01 µM, first compound 3.16 µM): 71% | viability, T/C (second compound 0.01 µM, first compound 10 µM): 1.5% | viability, T/C [5]: 86.2% | viability, T/C [6]: 82% | viability, T/C (second compound 0.0316 µM, first compound 0.316 µM): 98.2% | viability, T/C (second compound 0.0316 µM, first compound 1 µM): 86% | viability, T/C (second compound 0.0316 µM, first compound 3.16 µM): 75.8% | viability, T/C (second compound 0.0316 µM, first compound 10 µM): 2.64% | viability, T/C [7]: 68.3% | viability, T/C [8]: 70.7% | viability, T/C (second compound 0.1 µM, first compound 0.316 µM): 84.6% | viability, T/C (second compound 0.1 µM, first compound 1 µM): 72.1% | viability, T/C (second compound 0.1 µM, first compound 3.16 µM): 74.5% | viability, T/C (second compound 0.1 µM, first compound 10 µM): 2.65% | viability, T/C [9]: 55.8% | viability, T/C [10]: 55.2% | viability, T/C (second compound 0.316 µM, first compound 0.316 µM): 53.7% | viability, T/C (second compound 0.316 µM, first compound 1 µM): 54.4% | viability, T/C (second compound 0.316 µM, first compound 3.16 µM): 46.8% | viability, T/C (second compound 0.316 µM, first compound 10 µM): 1.04% | viability, T/C [11]: 36.3% | viability, T/C [12]: 35.2% | viability, T/C (second compound 1 µM, first compound 0.316 µM): 36.8% | viability, T/C (second compound 1 µM, first compound 1 µM): 34.2% | viability, T/C (second compound 1 µM, first compound 3.16 µM): 35% | viability, T/C (second compound 1 µM, first compound 10 µM): 1.55%
